Measurements: paper PMC11997881, “Comprehensive Characterization of Bruton’s Tyrosine Kinase Inhibitor Specificity, Potency, and Biological Effects: Insights into Covalent and Noncovalent Mechanistic Signatures” (ACS Pharmacology & Translational Science, 2025)

What was measured:
TEC = target: T1, TEC (Homo sapiens, UniProt P42680); test: scanMAX binding POC, TEC; settings: 1 μM
T1 sequence (P42680 1-631): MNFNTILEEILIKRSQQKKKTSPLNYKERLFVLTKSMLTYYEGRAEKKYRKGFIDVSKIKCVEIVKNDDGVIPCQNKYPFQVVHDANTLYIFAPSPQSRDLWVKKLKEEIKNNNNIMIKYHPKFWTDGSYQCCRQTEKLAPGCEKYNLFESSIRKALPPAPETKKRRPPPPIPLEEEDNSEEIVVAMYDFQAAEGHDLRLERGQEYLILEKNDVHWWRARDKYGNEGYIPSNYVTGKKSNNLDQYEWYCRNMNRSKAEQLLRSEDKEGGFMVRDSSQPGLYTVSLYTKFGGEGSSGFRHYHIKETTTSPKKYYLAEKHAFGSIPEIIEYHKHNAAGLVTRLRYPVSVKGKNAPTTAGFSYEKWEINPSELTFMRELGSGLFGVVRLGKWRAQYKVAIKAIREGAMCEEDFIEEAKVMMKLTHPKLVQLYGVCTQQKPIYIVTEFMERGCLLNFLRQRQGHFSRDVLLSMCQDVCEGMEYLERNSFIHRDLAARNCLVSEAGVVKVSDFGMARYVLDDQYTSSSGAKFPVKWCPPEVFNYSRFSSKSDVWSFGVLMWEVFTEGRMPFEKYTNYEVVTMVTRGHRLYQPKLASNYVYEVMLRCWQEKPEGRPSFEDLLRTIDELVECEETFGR
From the text: (§1) Comprehensive Characterization of Bruton’s Tyrosine Kinase Inhibitor Specificity, Potency, and
(§2) Biological Effects: Insights into Covalent and Non-Covalent Mechanistic Signatures
(§3) Antonia C. Darragh1, Andrew M. Hanna1, Justin H. Lipner2, Alastair J. King2, Nicole B. Servant1, Mirza Jahic1*
(§4) *To whom correspondence should be addressed: Mirza Jahic, e-mail address: Mirza.Jahic@discovery.eurofinsus.com
(§5) Supporting Table S1. Comparison of BTK inhibitor specificity to TEC family members. TEC family members are
(§6) Burton’s tyrosine kinase (BTK), tyrosine kinase expressed in hepatocellular carcinoma (TEC), bone marrow-
(§7) expressed kinase (BMX/ETK), and T cell-expressed kinase (TXK/RLK), and interleukin-2-inducible T cell kinase
(§8) A zero POC signifies that the compound

JNK3 (MAPK10) = JNK3 (MAPK10) (Homo sapiens, UniProt P53779); test: scanMAX binding POC, JNK3; settings: 1 μM
Description: (§9) The compounds were diluted directly into the assays such that the final concentration of DMSO was 0.9%. No enzyme purification steps were performed on the protein extracts before adding them to the reaction mixture, and the protein extracts were diluted 10,000-fold in the final reaction mixture (the final DNA-tagged enzyme concentration was less than 0.1 nM). Binding assay mixtures were incubated at 25 °C with shaking for 1 h. […] The concentration of wild-type or mutant BTK in the eluates was then determined using quantitative PCR. […] Each assay’s affinity ligand concentration on the magnetic beads has been optimized to ensure that the true thermodynamic Kd values for competitor molecules were measured, as described in detail previously99.
(§10) Comparison of BTK inhibitor specificity to c-Jun N-terminal kinases (JNK1-3/MAPKP8-10).
(§11) a The percent of control (POC) is the percent of kinase that was competed off its control ligand relative to the positive and negative controls at the screening concentration56. A zero POC signifies that the compound

MKK7 = target: T2, MKK7 (Homo sapiens, UniProt O14733); test: scanMAX binding POC, MKK7; settings: 1 μM
T2 sequence (O14733 1-419): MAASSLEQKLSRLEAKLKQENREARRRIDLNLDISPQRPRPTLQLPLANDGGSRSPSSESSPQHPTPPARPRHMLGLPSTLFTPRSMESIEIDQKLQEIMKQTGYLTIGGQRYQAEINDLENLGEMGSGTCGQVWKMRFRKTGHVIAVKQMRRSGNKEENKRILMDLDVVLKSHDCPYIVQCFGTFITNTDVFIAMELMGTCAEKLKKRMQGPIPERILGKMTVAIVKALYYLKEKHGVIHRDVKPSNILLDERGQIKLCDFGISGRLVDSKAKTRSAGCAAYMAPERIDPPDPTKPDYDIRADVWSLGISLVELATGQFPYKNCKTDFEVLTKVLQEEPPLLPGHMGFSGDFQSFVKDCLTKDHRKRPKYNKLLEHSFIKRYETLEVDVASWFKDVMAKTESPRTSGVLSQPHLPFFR

ITK = target: T3, ITK (Homo sapiens, UniProt Q08881); test: scanMAX binding POC, ITK; settings: 1 μM
T3 sequence (Q08881 1-620): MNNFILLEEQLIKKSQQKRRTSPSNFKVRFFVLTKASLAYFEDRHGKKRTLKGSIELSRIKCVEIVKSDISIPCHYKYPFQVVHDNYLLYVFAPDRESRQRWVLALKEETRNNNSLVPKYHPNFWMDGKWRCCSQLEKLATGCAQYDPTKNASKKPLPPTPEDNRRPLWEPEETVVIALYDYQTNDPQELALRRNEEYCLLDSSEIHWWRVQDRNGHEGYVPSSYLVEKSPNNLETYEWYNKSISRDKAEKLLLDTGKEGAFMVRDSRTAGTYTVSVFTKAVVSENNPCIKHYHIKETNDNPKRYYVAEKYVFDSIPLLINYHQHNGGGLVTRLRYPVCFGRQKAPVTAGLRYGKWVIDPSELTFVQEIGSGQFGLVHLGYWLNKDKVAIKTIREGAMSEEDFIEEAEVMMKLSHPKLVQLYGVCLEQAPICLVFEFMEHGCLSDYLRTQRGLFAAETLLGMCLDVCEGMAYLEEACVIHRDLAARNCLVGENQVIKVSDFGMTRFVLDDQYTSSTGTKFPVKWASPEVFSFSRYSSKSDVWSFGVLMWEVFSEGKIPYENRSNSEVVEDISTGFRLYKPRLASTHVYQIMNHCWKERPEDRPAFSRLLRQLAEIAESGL
From the text: as §1, §2, §3, §4, §5, §6, §7, §8

BLK = BLK (Homo sapiens, UniProt P51451); test: scanMAX binding POC, BLK; settings: 1 μM
BLK, sequence (P51451 whole entry): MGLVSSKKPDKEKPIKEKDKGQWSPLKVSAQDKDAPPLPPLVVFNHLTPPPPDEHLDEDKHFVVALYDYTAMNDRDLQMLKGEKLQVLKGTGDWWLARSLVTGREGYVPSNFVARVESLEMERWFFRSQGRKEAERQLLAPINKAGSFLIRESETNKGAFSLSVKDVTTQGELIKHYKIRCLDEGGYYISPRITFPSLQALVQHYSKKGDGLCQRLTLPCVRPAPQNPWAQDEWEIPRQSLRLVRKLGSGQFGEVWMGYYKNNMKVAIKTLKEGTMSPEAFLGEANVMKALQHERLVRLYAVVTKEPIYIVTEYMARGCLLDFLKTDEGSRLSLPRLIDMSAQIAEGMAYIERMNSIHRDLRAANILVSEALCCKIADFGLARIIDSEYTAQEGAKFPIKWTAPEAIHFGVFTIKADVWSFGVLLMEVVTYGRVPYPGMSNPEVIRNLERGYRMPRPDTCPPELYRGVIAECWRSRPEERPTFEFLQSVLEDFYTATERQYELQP

BTK [1] = target: T4, BTK (Homo sapiens, UniProt Q06187); test: scanMAX binding POC, BTK; settings: 1 μM; zero POC = competition comparable to positive control
T4 construct: host or cells: transiently transfected HEK293 cells
From the text: as §1, §2, §3, §4, §5, §6, §7, §8

ERBB4 = ERBB4 (Homo sapiens, UniProt Q15303); test: scanMAX binding POC, ERBB4; settings: 1 μM
ERBB4, sequence (Q15303 26-1308): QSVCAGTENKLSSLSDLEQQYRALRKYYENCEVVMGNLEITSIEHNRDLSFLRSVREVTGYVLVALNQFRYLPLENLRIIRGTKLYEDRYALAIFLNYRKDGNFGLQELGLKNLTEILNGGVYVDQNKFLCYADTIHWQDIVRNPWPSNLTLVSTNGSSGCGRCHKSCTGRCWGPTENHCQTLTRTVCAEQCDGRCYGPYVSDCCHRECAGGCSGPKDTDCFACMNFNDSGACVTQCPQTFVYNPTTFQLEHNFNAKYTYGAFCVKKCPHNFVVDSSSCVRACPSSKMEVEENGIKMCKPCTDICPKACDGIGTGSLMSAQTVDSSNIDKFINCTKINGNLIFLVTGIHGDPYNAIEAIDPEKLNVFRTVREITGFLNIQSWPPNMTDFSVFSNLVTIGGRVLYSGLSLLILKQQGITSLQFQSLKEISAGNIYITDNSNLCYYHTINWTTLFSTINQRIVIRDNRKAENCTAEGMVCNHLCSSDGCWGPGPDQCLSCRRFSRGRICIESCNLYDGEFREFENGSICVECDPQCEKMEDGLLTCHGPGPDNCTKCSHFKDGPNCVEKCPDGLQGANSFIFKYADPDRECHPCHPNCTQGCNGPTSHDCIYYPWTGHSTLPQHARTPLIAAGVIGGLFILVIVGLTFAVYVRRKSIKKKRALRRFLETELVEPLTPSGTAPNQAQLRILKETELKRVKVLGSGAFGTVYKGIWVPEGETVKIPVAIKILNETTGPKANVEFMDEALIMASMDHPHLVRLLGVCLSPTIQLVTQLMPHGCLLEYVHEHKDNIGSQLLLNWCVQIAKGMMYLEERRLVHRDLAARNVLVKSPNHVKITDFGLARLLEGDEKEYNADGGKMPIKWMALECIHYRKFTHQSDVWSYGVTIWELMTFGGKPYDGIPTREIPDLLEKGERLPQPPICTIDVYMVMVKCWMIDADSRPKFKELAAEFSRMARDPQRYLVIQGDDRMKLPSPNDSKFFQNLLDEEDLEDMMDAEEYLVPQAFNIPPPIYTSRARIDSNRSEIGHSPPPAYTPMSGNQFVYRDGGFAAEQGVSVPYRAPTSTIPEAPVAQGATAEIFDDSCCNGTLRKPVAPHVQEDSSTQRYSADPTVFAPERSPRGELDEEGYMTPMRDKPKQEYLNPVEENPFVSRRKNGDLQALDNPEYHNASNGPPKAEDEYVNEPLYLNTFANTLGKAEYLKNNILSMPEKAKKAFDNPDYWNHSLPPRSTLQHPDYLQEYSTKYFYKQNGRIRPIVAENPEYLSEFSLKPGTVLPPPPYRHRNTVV

TXK = target: T5, TXK (Homo sapiens, UniProt P42681); test: scanMAX binding POC, TXK; settings: 1 μM
T5 sequence (P42681 1-527): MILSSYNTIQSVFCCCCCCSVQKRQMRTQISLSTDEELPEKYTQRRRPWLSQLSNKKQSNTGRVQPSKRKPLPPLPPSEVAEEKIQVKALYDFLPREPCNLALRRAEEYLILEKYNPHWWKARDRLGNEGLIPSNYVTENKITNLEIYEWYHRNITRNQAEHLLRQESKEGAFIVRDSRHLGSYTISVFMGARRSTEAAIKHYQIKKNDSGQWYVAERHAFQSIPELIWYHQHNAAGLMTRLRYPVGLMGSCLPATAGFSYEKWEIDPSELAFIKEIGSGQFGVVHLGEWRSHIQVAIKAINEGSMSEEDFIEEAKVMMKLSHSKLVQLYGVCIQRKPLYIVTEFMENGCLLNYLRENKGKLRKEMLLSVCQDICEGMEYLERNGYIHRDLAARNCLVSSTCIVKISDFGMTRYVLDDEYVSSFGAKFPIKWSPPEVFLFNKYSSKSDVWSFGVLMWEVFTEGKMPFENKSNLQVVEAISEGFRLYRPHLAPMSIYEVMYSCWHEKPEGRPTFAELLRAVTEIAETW
From the text: as §1, §2, §3, §4, §5, §6, §7, §8

JNK2 (MAPK9) = JNK2 (MAPK9) (Homo sapiens, UniProt P45984); test: scanMAX binding POC, JNK2; settings: 1 μM
JNK2 (MAPK9), sequence (P45984 whole entry): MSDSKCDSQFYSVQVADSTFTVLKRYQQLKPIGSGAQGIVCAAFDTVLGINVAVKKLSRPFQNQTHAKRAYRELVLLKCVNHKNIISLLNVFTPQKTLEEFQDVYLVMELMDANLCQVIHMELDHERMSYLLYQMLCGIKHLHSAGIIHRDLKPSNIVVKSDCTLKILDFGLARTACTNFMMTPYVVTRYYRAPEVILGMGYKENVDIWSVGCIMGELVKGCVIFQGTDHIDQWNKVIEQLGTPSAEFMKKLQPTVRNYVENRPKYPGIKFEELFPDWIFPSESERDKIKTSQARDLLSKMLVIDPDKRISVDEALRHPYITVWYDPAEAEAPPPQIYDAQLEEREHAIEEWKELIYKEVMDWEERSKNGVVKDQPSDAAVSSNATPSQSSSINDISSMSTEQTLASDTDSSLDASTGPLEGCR
Description: as §9, §10, §11

ERBB3 = ERBB3 (Homo sapiens, UniProt P21860); test: scanMAX binding POC, ERBB3; settings: 1 μM
ERBB3, sequence (P21860 20-1342): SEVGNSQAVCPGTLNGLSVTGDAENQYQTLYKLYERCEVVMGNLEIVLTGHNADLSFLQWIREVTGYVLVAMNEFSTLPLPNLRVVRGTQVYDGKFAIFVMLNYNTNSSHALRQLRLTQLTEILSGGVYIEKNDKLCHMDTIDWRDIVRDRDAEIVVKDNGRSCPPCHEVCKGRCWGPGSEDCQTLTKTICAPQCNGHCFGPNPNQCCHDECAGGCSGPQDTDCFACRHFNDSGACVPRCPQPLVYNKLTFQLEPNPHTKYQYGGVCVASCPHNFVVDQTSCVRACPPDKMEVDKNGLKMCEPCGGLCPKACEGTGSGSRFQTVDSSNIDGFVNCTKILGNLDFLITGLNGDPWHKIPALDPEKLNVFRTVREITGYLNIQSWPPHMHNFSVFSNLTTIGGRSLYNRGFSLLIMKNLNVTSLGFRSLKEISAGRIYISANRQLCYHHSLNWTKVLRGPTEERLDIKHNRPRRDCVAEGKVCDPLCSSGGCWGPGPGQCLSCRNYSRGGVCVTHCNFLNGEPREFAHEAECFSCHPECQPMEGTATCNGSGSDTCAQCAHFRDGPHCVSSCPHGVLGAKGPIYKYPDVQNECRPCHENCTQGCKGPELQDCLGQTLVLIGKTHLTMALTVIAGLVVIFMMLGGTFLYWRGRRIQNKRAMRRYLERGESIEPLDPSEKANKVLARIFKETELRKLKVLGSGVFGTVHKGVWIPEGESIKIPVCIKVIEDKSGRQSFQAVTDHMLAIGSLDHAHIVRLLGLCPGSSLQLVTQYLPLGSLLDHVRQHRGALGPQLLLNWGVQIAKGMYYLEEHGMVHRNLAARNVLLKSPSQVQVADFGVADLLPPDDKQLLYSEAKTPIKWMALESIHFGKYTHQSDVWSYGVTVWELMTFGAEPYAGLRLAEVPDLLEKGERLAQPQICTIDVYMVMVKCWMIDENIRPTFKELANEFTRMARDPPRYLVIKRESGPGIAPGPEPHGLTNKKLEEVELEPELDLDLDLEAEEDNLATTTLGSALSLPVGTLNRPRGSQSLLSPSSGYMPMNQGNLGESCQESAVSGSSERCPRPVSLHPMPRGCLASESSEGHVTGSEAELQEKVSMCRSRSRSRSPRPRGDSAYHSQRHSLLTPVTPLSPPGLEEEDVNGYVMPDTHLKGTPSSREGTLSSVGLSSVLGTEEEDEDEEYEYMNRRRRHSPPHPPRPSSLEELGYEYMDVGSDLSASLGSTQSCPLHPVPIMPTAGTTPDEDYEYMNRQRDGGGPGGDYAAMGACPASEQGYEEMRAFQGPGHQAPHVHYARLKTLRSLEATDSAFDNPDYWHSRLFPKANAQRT

EGFR = EGFR (Homo sapiens, UniProt P00533); test: scanMAX binding POC, EGFR; settings: 1 μM
[2] = target: T6, JAK3 (JH1 catalytic domain) (Homo sapiens, UniProt P52333); test: scanMAX binding POC, JAK3; settings: 1 μM
T6 construct: The JAK3 POC is for its JH1 catalytic domain
T6 sequence (P52333 822-1111 limits assumed): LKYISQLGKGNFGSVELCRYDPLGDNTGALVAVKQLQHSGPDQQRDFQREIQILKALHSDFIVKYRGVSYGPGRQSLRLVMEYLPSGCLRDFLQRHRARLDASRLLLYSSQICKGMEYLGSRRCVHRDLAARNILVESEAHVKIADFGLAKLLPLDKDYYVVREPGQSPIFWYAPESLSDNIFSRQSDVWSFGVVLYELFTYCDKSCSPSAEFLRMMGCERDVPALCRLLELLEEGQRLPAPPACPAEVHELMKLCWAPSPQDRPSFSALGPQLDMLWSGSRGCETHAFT

JNK1 (MAPK8) = JNK1 (MAPK8) (Homo sapiens, UniProt P45983); test: scanMAX binding POC, JNK1; settings: 1 μM
Description: as §9, §10, §11

ERBB2 = ERBB2 (Homo sapiens, UniProt P04626); test: scanMAX binding POC, ERBB2; settings: 1 μM
ERBB2, sequence (P04626 23-1255): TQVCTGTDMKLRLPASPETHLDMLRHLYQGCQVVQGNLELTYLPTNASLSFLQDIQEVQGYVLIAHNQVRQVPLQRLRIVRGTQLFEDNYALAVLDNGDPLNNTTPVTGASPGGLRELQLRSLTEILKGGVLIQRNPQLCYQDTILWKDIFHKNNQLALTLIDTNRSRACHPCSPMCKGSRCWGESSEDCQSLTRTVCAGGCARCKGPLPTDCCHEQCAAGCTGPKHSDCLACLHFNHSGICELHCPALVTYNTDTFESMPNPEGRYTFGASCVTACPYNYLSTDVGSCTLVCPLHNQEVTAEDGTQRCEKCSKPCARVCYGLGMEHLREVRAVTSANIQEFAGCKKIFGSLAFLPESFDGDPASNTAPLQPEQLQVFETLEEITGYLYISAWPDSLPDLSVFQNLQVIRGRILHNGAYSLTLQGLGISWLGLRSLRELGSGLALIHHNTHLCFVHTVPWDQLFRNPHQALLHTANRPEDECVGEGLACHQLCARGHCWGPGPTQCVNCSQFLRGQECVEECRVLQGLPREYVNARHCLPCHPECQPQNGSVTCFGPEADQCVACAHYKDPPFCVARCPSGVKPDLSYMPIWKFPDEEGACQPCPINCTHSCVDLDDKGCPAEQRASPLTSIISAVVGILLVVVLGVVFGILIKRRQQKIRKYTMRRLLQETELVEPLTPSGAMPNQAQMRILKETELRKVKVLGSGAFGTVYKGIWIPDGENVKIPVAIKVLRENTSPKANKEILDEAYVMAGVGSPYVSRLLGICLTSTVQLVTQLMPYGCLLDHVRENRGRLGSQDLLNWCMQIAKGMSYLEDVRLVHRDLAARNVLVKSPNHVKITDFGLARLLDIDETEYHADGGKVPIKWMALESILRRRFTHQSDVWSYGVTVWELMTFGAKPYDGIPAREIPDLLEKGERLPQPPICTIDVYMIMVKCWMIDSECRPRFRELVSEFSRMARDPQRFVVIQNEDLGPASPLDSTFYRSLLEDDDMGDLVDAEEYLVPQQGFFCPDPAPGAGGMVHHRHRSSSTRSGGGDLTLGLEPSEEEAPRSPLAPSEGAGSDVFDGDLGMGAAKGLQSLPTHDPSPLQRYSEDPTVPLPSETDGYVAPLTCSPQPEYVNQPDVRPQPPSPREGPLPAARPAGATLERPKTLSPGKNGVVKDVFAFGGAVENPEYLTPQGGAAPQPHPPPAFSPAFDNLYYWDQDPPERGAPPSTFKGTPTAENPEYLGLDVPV

patients with R/R MCL = tested on: patients with R/R MCL; design: method as in NCT03494179; settings: ref NCT03494179; cited from earlier work
BMX = target: T7, BMX (Homo sapiens, UniProt P51813); test: scanMAX binding POC, BMX; settings: 1 μM
T7 sequence (P51813 1-675): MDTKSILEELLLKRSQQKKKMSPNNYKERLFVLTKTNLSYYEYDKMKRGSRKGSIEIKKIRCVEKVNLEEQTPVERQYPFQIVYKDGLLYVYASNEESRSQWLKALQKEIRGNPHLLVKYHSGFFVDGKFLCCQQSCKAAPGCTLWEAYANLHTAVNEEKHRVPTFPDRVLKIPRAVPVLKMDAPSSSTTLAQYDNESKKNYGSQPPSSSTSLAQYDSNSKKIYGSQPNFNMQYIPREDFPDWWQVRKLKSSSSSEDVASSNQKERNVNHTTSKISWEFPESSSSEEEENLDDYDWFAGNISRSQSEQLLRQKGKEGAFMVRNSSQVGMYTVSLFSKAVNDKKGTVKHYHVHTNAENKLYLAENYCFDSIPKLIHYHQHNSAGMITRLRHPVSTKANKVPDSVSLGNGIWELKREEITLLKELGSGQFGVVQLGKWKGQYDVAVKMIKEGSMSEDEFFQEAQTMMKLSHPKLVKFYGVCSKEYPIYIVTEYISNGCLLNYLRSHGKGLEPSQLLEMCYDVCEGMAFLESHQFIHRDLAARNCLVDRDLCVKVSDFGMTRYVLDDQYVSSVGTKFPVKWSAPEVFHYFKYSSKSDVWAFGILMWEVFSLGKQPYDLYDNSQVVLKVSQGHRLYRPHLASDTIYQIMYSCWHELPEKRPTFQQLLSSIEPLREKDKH
From the text: as §1, §2, §3, §4, §5, §6, §7, §8

[3] = tested on: 468 kinases/kinase domains; settings: scanMAX at 1 μM, POC <35
Description: The compounds were diluted directly into the assays such that the final concentration of DMSO was 0.9%. No enzyme purification steps were performed on the protein extracts before adding them to the reaction mixture, and the protein extracts were diluted 10,000-fold in the final reaction mixture (the final DNA-tagged enzyme concentration was less than 0.1 nM). Binding assay mixtures were incubated at 25 °C with shaking for 1 h. […] The concentration of wild-type or mutant BTK in the eluates was then determined using quantitative PCR.

BTK [4] = settings: cited from earlier work

SMILES	TEC binding POC (TEC)	JNK3 (MAPK10) POC (JNK3 (MAPK10))	MKK7 binding POC (MKK7)	ITK binding POC (ITK)	BLK binding POC (BLK)	BTK binding POC (BTK [1])	ERBB4 binding POC (ERBB4)	TXK binding POC (TXK)	JNK2 (MAPK9) POC (JNK2 (MAPK9))	ERBB3 binding POC (ERBB3)	EGFR binding POC (EGFR)	JAK3 binding POC [2]	JNK1 (MAPK8) POC (JNK1 (MAPK8))	ERBB2 binding POC (ERBB2)	BMX binding POC (BMX)	further results
CC#CC(=O)N[C@H]1CCCN(c2c(F)cc(C(N)=O)c3[nH]c(C)c(C)c23)C1 [Branebrutinib]	7.8% of control	89% of control	100% of control	17% of control	3.2% of control	0% of control	75% of control	2% of control	89% of control	75% of control	77% of control	48% of control	82% of control	100% of control		
C=CC(=O)N1CCC(CNc2ncnc(N)c2-c2ccc(Oc3ccccc3)cc2)CC1 [Evobrutinib]	10% of control	100% of control	100% of control				32% of control	23% of control	100% of control	97% of control	88% of control	100% of control	95% of control	91% of control		
C=CC(=O)N1CCC(c2ccc(C(N)=O)c(-c3ccc(Oc4ccccc4)cc3)n2)CC1 [Orelabrutinib]		100% of control	100% of control	100% of control	52% of control		96% of control	34% of control	100% of control	88% of control		89% of control	100% of control	100% of control	27% of control	CR (patients with R/R MCL): 27.4%; PR (patients with R/R MCL): 53.8%; overall response rate (patients with R/R MCL): 81.1%
C=CC(=O)N(C)CCOc1c(N)ncnc1-c1cc(F)cc(NC(=O)c2ccc(C3CC3)cc2F)c1C [Remibrutinib]	20% of control	100% of control	100% of control	97% of control	100% of control	0.15% of control	100% of control	97% of control	99% of control	100% of control	99% of control	100% of control	93% of control	100% of control		off-target hits [3]: one; IC50 (BTK [4]): 1.3 nM
C=CC(=O)N1CCC[C@@H](n2c(=O)n(-c3ccc(Oc4ccccc4)cc3)c3c(N)nccc32)C1 [Tolebrutinib]		90% of control	19% of control	67% of control	0.05% of control			1.1% of control	83% of control	0.8% of control		36% of control	96% of control	0% of control	11% of control	MKK7 binding POC (MKK7; listed as tolebrutinib): weak hit
